Test results reported in patent publication US20080221104A1, “SOLUBLE EPOXIDE HYDROLASE INHIBITORS FOR THE TREATMENT OF RHEUMATOID ARTHRITIS” (Arete Therapeutics, Inc., priority 2006, published 2008).
pIC50: −log10 of the molar value.

Experiments:
sEH = biological target: T1, sEH (Homo sapiens, UniProt P34913); experiment: sEH inhibition, fluorescent CMNPC substrate assay (IC50 determination); format: biochemical; settings: for inhibition at 0.05 µM: tested at 50 nM
T1 sequence (P34913 1-555): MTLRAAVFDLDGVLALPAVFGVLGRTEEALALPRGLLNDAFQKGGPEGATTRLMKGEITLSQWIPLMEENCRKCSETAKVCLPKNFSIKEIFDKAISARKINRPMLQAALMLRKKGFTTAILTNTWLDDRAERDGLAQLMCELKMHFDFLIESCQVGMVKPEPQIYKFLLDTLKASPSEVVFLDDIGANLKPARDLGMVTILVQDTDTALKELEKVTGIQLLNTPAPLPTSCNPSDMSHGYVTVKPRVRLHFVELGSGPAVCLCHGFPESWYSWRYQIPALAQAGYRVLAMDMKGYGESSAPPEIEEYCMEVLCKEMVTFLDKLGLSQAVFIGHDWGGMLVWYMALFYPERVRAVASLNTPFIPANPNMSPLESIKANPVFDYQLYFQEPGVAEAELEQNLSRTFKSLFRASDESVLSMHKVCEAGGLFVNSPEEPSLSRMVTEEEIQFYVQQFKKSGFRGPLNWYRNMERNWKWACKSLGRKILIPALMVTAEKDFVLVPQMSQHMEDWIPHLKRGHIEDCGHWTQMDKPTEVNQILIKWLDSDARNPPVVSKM
Description: The IC50s for each inhibitor were determined according to the following procedure:
The substrate for the reaction was:
Therefore, well A2 would refer to a well in the first row and second column of the plate.
In a black 96 well plate, all the wells are filled with 150 μL of buffer A (Buffer A: Bis/Tris HCl, 25 mM, pH 7.0 plus 0.1 mg/mL BSA). DMSO (2 microliters) was added in well A2 and A3, and then was added 2 μL of inhibitor solution in A1 and A4 through A12. […] The plate was incubated for 5 minutes in the plate reader at 30° C. During incubation, the working solution of substrate was prepared by mixing 3.68 mL of buffer A with 266 μL of 0.5 mM substrate solution. At t=0, 30 μL of working substrate solution was added and readings were started ([S]final: 5 μM). […] The velocities were used to analyze and calculate the IC50s.

IL-6 = experiment: LPS-induced cytokine production in mice (plasma IL-6); format: in vivo, mice (C57-B6)
From the text: Mouse Model of Inflammation Supporting Arthritis Model: Study of effect of Treatments on LPS-Induced Cytokine Production Mice (C57-B6 mice, ˜7-8 wks, male, Charles River Labs, 22-28 g) were quarantined and examined daily during 72 hr quarantine period. Any sign of clinical distress, disease, or injury were noted on a daily basis. […] Accepted mice were transferred to routine maintenance and housed at 5 per cage. Each mouse was identified by an ear tag. The vehicle or pharmaceutically acceptable carrier for test compounds was 20% hydroxypropyl-beta-cyclodextrin for subcutaneous and interperoneal routes (Groups 6-9). For Groups 1-5, the “Vehicle” as used in this study is 0.1% Tween 80 and 1% carboxymethylcellulose (CMC). The 0.1% Tween 80 and 1% carboxymethylcellulose (CMC) was the Vehicle used in the mice in Groups 1 and 2. The compounds were administered with pre-formulated material at a dose of 0.2 mL for 25 g mouse (8.0 mL per kg body weight). […] At the initiation of the study (T=0) animals were weighed and administered with test material or Vehicle. Five 5 mice per treatment per time point group were completed. At the first time point (T=24 hours) the animals were administered with test material or Vehicle again as above. [0.2 mL for 25 g mouse (8.0 mL per kg body weight)] [table] At the time point T=25 hour, animals were administered 2 mL/kg of an LPS solution (5 mg/mL, lipopolysaccharide from Escherichia coli 0111:B4; dissolved in sterile PBS) or vehicle by intraperitoneal route. At this time point, Group 1 mice received Vehicle only as the non-LPS control and Groups 2 through 9 mice received LPS and Vehicle (Group 2) or Test Materials. At the time point T=30 hour, mice in Groups 1 through 9 were anesthetized and exsanguinated into EDTA-treated microtainer tubes. […] The plasma samples was stored at −20° C. until testing. Plasma IL-6 was measured by Luminex cytokine multiplex measurements using beads supplied by Linco.

DBA/1 mice = experiment: Collagen induced rheumatoid arthritis (RA) mouse model; format: in vivo, mice (DBA/1)
Description: Mice were immunized with collagen as follows. Collagen (Bovine Type II, 0.05M in acetic acid) was emulsified with CFA (Complete Freund's Adjuvant) by mixing one volume of CFA with an equal amount of the collagen solution. Mixing was continued until a stable, stiff emulsion resulted. To ascertain the desired stability of the emulsion, 1 drop of emulsion was added into a water-filled beaker. The emulsion was considered stable if it remained in the water as a solid. For the collagen IP boost on day 21, the Bovine Type II collagen (Condrex, Seattle, Wash.) was thawed at 4° C. overnight and then mixed 1:1 with the PBS supplied. 200 μL was injected IP into each mouse. Four groups of 10 mice (40 total), aged 7-8 weeks were acclimated a minimum of 5 days prior to start of the study. Animals were housed 5 per cage in microisolators in a 12:12 light dark cycle (all work was done in a BioBubble Hood™). Standard maintenance mouse chow diet (Harlan Teklad 8640) was supplied. Water and food were given ad libitum. High CIA-susceptible DBA/1 mice were utilized which generally develop arthritis 3-5 weeks after immunization with Bovine type TI collagen. Fully developed arthritis, including red and swollen paws, was to be observed 3-5 days after the onset. […] Time of dosing was approximately the same each day following through the end of the study. The mice groups were fed as follows through the duration of the experiment: Group 1) Chow (Referred to as “Vehicle” in FIG. 1). Group 2) Chow (Positive Control-Dexamethasone (DEXA))-Dosed as appropriate. […] The dosing solutions were made on a twice weekly basis and stored at 4° C. between dosing. Measurements were taken twice weekly from boost and included: body weight measurement and Arthritic Score on a scale of 0 to 4. Arthritic score 0-4 (0=normal; 1=1-2 digit swollen and mildly red; 2=redness and swelling in mid-foot or ankle; 3=>3 paws and ankle joints swollen and very red); 4=all joints swollen and animal is not using the paw. At onset of arthritis paw measurements were taken with calipers. A baseline of caliper measurements was taken when all visual assessments were zero. Measurements were taken with an electronic caliper that entered measurements directly to an excel spreadsheet. The study was terminated on Day 42 from initial collagen injection. Cardiac blood was taken from each mouse and plasma prepared in EDTA within 15 min of collection. Plasma was frozen at −20° C. for future analysis of cytokines and eicosatrienoic acids. All left hind paws were removed and stored in formalin for future histology.

[1] = Pharmacokinetic study in mice; format: in vivo; settings: mouse plasma; for MRT: read-out: mean resident time (MRT)
Description: All animals were weighed prior to dose administration. […].
Blood (˜0.5 mL) was collected by cardiac puncture at sacrifice and transferred into vacutainer tubes containing sodium heparin at the time points outlined (See FIG. 3). After collection, the blood samples were centrifuged at approximately 1000×g at 2-8° C. for approximately 15 minutes. Each plasma specimen was collected, aliquoted into 2 microcentrifuge tubes, and stored at about −20° C. until analysis by LC/MS (liquid chromatography/mass spectrometry).
The quantitation method for pharmacokinetics is summarized as follows:
To prepare calibration standards for quantitation, the working standard was diluted 1 in 100 into rat plasma to 5 μg/mL (5 μL+495 μL), then diluted further with the same medium by 3-fold serial dilution. A total of seven dilutions were performed yielding eight calibration standards ranging from 2.29 to 5000 ng/mL. Calibration standards 3, 5 and 7 were used as the low, mid and high QC samples, respectively.
Calibration standards, QC samples and study samples were prepared for HPLC injection by precipitating plasma (25 μL) with 3× volumes (75 μL) of ice cold Internal Standard Solution. Following centrifugation at 6100 g for 30 minutes, 40 μL of each supernatant was transferred to a deep-well microplate and diluted with 200 μL of 0.2% formic acid in water.

[2] = 50 mg/kg PO once a day (QD), Day 20 to Day 27
[3] = 50 mg/kg PO twice a day (BID), Day 28 to Day 42

| SMILES | pIC50 (sEH; read-out: IC50 against sEH) | inhibition at 0.05 µM (sEH) [%] | inhibition of IL-6 release in response to LPS (IL-6; administered SC, 50 mg/kg) [%] | inhibition of IL-6 release in response to LPS (IL-6; given orally, 50 mg/kg) [%] | arthritis score vs Vehicle (DBA/1 mice; [2]) | arthritis score vs Vehicle (DBA/1 mice; [3]) | Cmax [1] [ng/mL] | area under the curve (AUC), fold higher than COMPOUND #2 [1] | MRT [1] [h] | inhibition of IL-6 release in response to LPS (IL-6; PO, 100 mg/kg, relative to the vehicle control) [%] |
| --- | --- | --- | --- | --- | --- | --- | --- | --- | --- | --- |
| O=C(Nc1ccc(C(F)(F)F)cc1)Nc1cccc(C(=O)N2CCOCC2)c1 [Compound 1, 1-[3-(morpholine-4-carbonyl)-phenyl]-3-(4-trifluoromethyl-phenyl)-urea] | 8.05 | 82 | 94 | 55 | no significant difference from Vehicle | significantly decreased the arthritic score | 9920 | over 20 fold | 5.6 |  |
| CC(=O)N1CCC(NC(=O)NC23CC4CC(CC(C4)C2)C3)CC1 [Compound 2, 1-(1-acetylpiperidn-4-yl)-3-(adamant-1-yl) urea] |  |  | 51 | 51 | not significantly different from Vehicle treated animals | not significantly different from Vehicle treated animals | 6490 |  | 1.3 |  |
| CS(=O)(=O)N1CCC(NC(=O)NC23CC4CC(CC(C4)C2)C3)CC1 [Compound 5, 1-[1-(methylsulfonyl)piperidin-4-yl]-3-(adamant-1-yl) urea] |  | 94 |  |  |  |  |  |  |  |  |
| Fc1ccc(-c2nc3n(c2-c2ccncc2)CCS3)cc1 [SKF86002, reference compound] |  |  |  |  |  |  |  |  |  | 66 |
